Series [1] addresses adenosine A2A receptor (Rattus norvegicus, UniProt P30543). Briefly: biochemical. The following applies: for A3/A2A: ratio of Ki A3 (human) to Ki A2A (rat). On the procedure: (§1) Incubations were carried out for 1 hr at 37° C. and were terminated by rapid filtration over Whatman GF/B filters, using a Brandell cell harvester (Brandell, Gaithersburg, Md.). Tubes were washed three times with 3 ml of buffer. Radioactivity was determined in a Beckman 5500B γ-counter. Nonspecific binding was determined in the presence of 10^−5 M R-PIA.
(§2) All compounds prepared were tested in radioligand binding assays to determine their affinities for the adenosine A1 receptor in rat brain cortex, the A2A receptor in rat striatum and the human A3 receptor as expressed in HEK 293 cells (Table 2, hereinafter). The Ki values were computed from the displacement curves obtained by nonlinear regression of the competition curves with the software package Prism (Graph Pad, San Diego, Calif.)
(§3) For the adenosine A1 receptor, the tritiated antagonist, [^3H]-1,3-dipropyl-8-cyclopentylxanthine ([^3H]DPCPX), and for the adenosine A2A receptor, the tritiated antagonist [^3H]ZM 241385 were used. Since radiolabeled antagonists are not commercially available for the adenosine A3 receptor, [125I]AB-MECA, an A3 receptor agonist, was used. Displacement experiments were performed in the absence of GTP.

Series [2] deals with T1, adenosine A1 receptor (Rattus norvegicus, UniProt P25099).
T1 sequence (P25099 1-326): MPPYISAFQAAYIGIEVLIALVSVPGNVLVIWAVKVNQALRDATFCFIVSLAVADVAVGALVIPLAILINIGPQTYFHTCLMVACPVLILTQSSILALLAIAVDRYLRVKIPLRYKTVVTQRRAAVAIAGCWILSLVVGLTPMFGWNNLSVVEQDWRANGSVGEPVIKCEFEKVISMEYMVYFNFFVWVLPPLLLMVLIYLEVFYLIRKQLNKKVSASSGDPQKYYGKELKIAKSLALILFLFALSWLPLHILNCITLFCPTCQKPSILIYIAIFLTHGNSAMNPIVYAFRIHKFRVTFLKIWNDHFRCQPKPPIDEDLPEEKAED
As to the kind of experiment: biochemical. Particulars: read-out: % displacement at 10^-5 M, A1. As to the method: as §1, §2, §3

In series [3] the target is human adenosine A2A receptors (Homo sapiens, UniProt P29274). As to the method:
CHO cells expressing the human adenosine A2A receptors were grown overnight as a monolayer in 24 wells tissue culture plates (400 μl/well; 2×10^5 cells/well). cAMP generation was performed in Dulbecco's Modified Eagles Medium (DMEM)/N-2-hydroxyethylpiperazin-N′-2-ethansulfonic acid HEPES) buffer (0.60 g HEPES/50 ml DMEM pH 7.4). To each well, washed three times with DMEM/HEPES buffer (250 μl), 100 μl DMEM/HEPES buffer, 100 μl adenosine deaminase (final concentration 5 IU/ml) and 100 μl of a mixture of rolipram and cilostamide (final concentration 50 μM each) were added. After incubation for 40 minutes at 37° C., 100 μL agonist was added. After 15 minutes at 37° C., the reaction was terminated by removing the medium and adding 200 μl 0.1 M HCl. Wells were stored at −20° C. until assay.
The amounts of cAMP were determined after a protocol with cAMP binding protein^12 with the following minor modifications. As a buffer was used 150 mM K2HPO4/10 mM EDTA/0.2% Bovine Serum Albumine (BSA) at pH 7.5. Samples (20 μl+30 μl 0.1 M HCl) were incubated for at least 2.5 hours at 0° C. before filtration over Whatman GF/B filters. […] Filters were counted in Packard Emulsifier Safe scintillation fluid (3.5 ml) after 24 hours of extraction.
All compounds prepared were also tested in a functional assay.

The target of series [4] is T2, human A3 receptor (Homo sapiens, UniProt P0DMS8).
T2 construct: expressed in transfected cells; host or cells: HEK 293
T2 sequence (P0DMS8 1-318): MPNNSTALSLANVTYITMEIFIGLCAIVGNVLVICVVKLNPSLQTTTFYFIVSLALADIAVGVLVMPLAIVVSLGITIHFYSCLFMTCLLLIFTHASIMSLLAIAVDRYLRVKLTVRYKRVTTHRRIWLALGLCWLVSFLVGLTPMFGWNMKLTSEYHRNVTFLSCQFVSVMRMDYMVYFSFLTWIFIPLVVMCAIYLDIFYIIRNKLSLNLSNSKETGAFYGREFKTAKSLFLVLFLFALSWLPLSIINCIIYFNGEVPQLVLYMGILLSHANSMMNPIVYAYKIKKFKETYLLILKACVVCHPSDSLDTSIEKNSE
Briefly: Radioligand binding, displacement of [125I]AB-MECA from human A3 receptor expressed in HEK 293 cells. On the procedure:
as §1, §2, §3
In general terms: In a radioligand displacement assay an active substance lowers the binding of a labelled ligand.

Here are results for 4 compounds from patent US7112574B2, “C2,8-disubstituted adenosine derivatives and their different uses” (priority 2001, dated 2006).

The term Ki denotes a measure of affinity in units of concentration, obtained from inhibition or displacement. A lower Ki goes with a stronger hold on the target. The melting point is the temperature of the solid-liquid transition.

`CCCC/C=C/c1nc(N)c2nc(NC)n([C@@H]3O[C@H](CO)[C@@H](O)[C@H]3O)c2n1` [Compound 17, 2-((E)-1-Hexenyl)-8-methylaminoadenosine] came in with a melting point of 161 to 166 °C. Also, in series [1], the inhibitory constant (Ki) was 0.663 ± 0.106 µM and the A3/A2A is given as 20.3. For the same compound, the inhibition at 10 µM in series [2] was determined as 17.9%. Moreover, in series [3], the “% cAMP production hA2A” value is 54% (49–59). Moreover, in series [4], the Ki worked out at 13.4 ± 2.13 µM.
`CCCC/C=C/c1nc(N)c2nc(NCC)n([C@@H]3O[C@H](CO)[C@@H](O)[C@H]3O)c2n1` [Compound 18, 2-((E)-1-hexenyl)-8-ethylaminoadenosine] gave a melting point of 128 to 130 °C. Also, in series [1], the affinity corresponds to a Ki of 1.84 ± 0.3 µM and the A3/A2A is on record as 9.53. Further, in series [2], the inhibition at 10 µM amounted to 30%. Further, the “% cAMP production hA2A” value in series [3] is on record as 65% (63–66). In addition, the Ki in series [4] is 17.5 ± 2.1 µM.
Compound `CCNc1nc2c(N)nc(I)nc2n1[C@@H]1O[C@H](CO)[C@@H](O)[C@H]1O` [Compound 8, 2-iodo-8-ethylaminoadenosine] gave a melting point of 205 to 207 °C. Moreover, the “% displacement at 10^-5 M, A2A” value in series [1] ([3H]ZM241385, rat striatal membranes, 10 μM, n=2, mean value) is listed as 40.6%. Further, in series [2], the inhibition at 10 µM came out at 35.2%. For the same compound, the “% cAMP production hA2A” value in series [3] is 77% (76–78). In addition, the Ki in series [4] was determined as 5.11 ± 0.89 µM.
The compound `CCCCC#Cc1nc(N)c2nc(NCCC)n([C@@H]3O[C@H](CO)[C@@H](O)[C@H]3O)c2n1` [Compound 14, 2-(1-Hexynyl)-8-propylaminoadenosine] gave a melting point of 184 to 186 °C. For the same compound, in series [1], the Ki was found to be 0.082 µM and the A3/A2A is reported as 26.3. For the same compound, the “selectivity for the adenosine A2A receptor compared to A3” value in series [1] (from Ki values) is reported as around 26 fold. The inhibition at 10 µM in series [2] is 47.6%. Moreover, the “% cAMP production hA2A” value in series [3] is 58% (50–66). In addition, the Ki in series [4] turned out to be 2.16 ± 0.12 µM.
